{"source": "patent US11730405B2", "about": "“Body fluid leakage detection aqueous composition” (MAGLE CHEMOSWED HOLDING AB, priority 2017, dated 2023)", "key": {"[1]": {"experiment": "Pharmacokinetics of BTB in drainage fluid and portal venous blood after abdominal application of PAN indicator hydrogel (HPLC-MS)", "assay_type": "in vivo, domestic pigs (Sus Scrofa Domestica)", "details": "for concentration at 1 day / concentration at 2 day / concentration at 0 min / concentration at 1 min / concentration at 5 min / concentration at 30 min / concentration at 60 min / concentration at 120 min: pig, other: abdominal application at the pancreatic surgery field; for concentration at 5 min: Min 5, mean of animals; for concentration at 30 min: Min 30, mean of animals", "procedure": "(§1) PAN toxicology was evaluated by analyzing in vivo pharmacokinetics of its degradation products over 48 hours. Additionally, acute local tissue injury caused by the indicator within minutes as well as macroscopic intra-abdominal side effects and local histological of the device over 8 days were assessed. Finally, cytotoxicity of its degradation products on pancreatic target cells was analyzed.\nFor toxicological evaluation of PAN indicator hydrogel pharmacokinetics studies were conducted measuring concentrations of degradation products of the device in body fluid components over time consequently to abdominal application in pancreatic surgery. Blood from portal vein and peritoneal fluid from intraoperative situs or postoperative drainages were sampled. Time points of sampling in relation to indicator application were: 0 min (baseline before indicator application), 1, 5, 30, 60, and 120 min, 1st and 2nd postoperative day. Due to its composition with water and degradable components starch microspheres, only further constituent bromothymol blue (BTB) needed to be evaluated. It should be evaluated if and how much BTB stays in the organism after application at the pancreatic surgery field, gets resorbed to portal venous circulation and passes liver metabolism to reach central venous circulation. Thus, samples of body were collected at the different body compartments over time as described above. Due to expected extremely small BTB-amounts to be measured the very sensitive detection method High Pressure Liquid Chromatography-Mass Spectrometry (HPLC-MS) was used."}, "[2]": {"details": "cited from earlier work"}, "[3]": {"system": "pancreatic target cells", "experiment": "Cytotoxicity cell culture assay (resazurin to resofurin fluorescence photometry)", "assay_type": "cell-based", "procedure": "as §1\nCytotoxicity by PAN was further evaluated in a cell culture assay. Metabolic activity of viable cells was evaluated by fluorescence photometry of metabolized resofurin from resazurin after incubation with increasing amount of BTB. PAN indicator hydrogels contain BTB at a concentration of almost 0.5 mg/ml. Thus BTB-solutions with concentrations of 0.5 mg/ml, 1 mg/ml, 1.5 mg/ml, and 5.5 mg/ml, respectively were tested. Cytotoxicity is defined as cell viability less than 70%."}, "[4]": {"details": "drainage fluid (peritoneal fluid), pig drainage fluid, read-out: Drainage BTB-Concentration, Mean"}, "[5]": {"details": "portal venous blood, pig portal venous blood, read-out: Portal Venous Blood BTB-Concentration, Mean"}}, "note": "Where “and” joins values, the source holds several entries; their conditions need not be identical. Identical values can stand only once. Like-named read-outs stand apart in the source and are kept apart here.", "data": [{"smiles": "Cc1c(C2(c3cc(C(C)C)c(O)c(Br)c3C)OS(=O)(=O)c3ccccc32)cc(C(C)C)c(O)c1Br", "note": "[BTB, bromothymol blue]", "values": [{"measurement": "Drainage BTB-Concentration", "setting": "[1]; pig drainage fluid, Day 1 (1st postoperative day), individual animals Tox 1-4", "result": "< 20 ng/mL and 32.1 ng/mL and 18.9 ng/mL and 14.4 ng/mL and 2.98 ng/mL"}, {"measurement": "Drainage BTB-Concentration", "setting": "[1]; pig drainage fluid, Day 2 (2nd postoperative day), individual animals Tox 1-4", "result": "no detectable amount and 0 ng/ml"}, {"measurement": "Drainage BTB-Concentration", "setting": "[1]; pig drainage fluid, Min 0 (baseline before indicator application), individual animals Tox 1-4", "result": "0 ng/ml (3×) and 7.44 ng/ml"}, {"measurement": "Drainage BTB-Concentration", "setting": "[1]; pig drainage fluid, Min 1 after indicator application, individual animals Tox 1-4", "result": "2060 ng/mL and 9220 ng/mL and 3600 ng/mL and 2010 ng/mL"}, {"measurement": "Drainage BTB-Concentration", "setting": "[1]; pig drainage fluid, Min 5, individual animals Tox 1-4", "result": "7650 ng/mL and 389 ng/mL and 2560 ng/mL and 2070 ng/mL"}, {"measurement": "Drainage BTB-Concentration", "setting": "[1]; pig drainage fluid, Min 30, individual animals Tox 1-4", "result": "3280 ng/mL and 10.7 ng/mL and 1220 ng/mL and 712 ng/mL"}, {"measurement": "Drainage BTB-Concentration", "setting": "[1]; pig drainage fluid, Min 60, individual animals Tox 1-4", "result": "1140 ng/mL and 9.27 ng/mL and 1270 ng/mL and 224 ng/mL"}, {"measurement": "Drainage BTB-Concentration", "setting": "[1]; pig drainage fluid, Min 120, individual animals Tox 1-4", "result": "619 ng/mL and 263 ng/mL and 631 ng/mL and 121 ng/mL"}, {"measurement": "Portal Venous Blood BTB-Concentration", "setting": "[1]; pig portal venous blood, Day 1, individual animals Tox 1-4", "result": 0, "unit": "ng/mL"}, {"measurement": "Portal Venous Blood BTB-Concentration", "setting": "[1]; pig portal venous blood, Day 2, individual animals Tox 1-4", "result": 0, "unit": "ng/mL"}, {"measurement": "Portal Venous Blood BTB-Concentration", "setting": "[1]; pig portal venous blood, Min 0 (baseline before indicator application), individual animals Tox 1-4", "result": 0, "unit": "ng/mL"}, {"measurement": "Portal Venous Blood BTB-Concentration", "setting": "[1]; pig portal venous blood, Min 1, individual animals Tox 1-4", "result": 0, "unit": "ng/mL"}, {"measurement": "Portal Venous Blood BTB-Concentration", "setting": "[1]; pig portal venous blood, Min 5, individual animals Tox 1-4", "result": "0 ng/ml (3×) and 2.02 ng/ml"}, {"measurement": "Portal Venous Blood BTB-Concentration", "setting": "[1]; pig portal venous blood, Min 30, individual animals Tox 1-4", "result": "0 ng/ml (3×) and 2.11 ng/ml"}, {"measurement": "Portal Venous Blood BTB-Concentration", "setting": "[1]; pig portal venous blood, Min 60, individual animals Tox 1-4", "result": 0, "unit": "ng/mL"}, {"measurement": "Portal Venous Blood BTB-Concentration", "setting": "[1]; pig portal venous blood, Min 120, individual animals Tox 1-4", "result": 0, "unit": "ng/mL"}, {"measurement": "concentration at 1 day", "setting": "[1]; drainage fluid (peritoneal fluid), pig drainage fluid, Day 1, mean of animals, read-out: Drainage BTB-Concentration, Mean", "result": 17.1, "unit": "ng/mL"}, {"measurement": "concentration at 2 day", "setting": "[1]; drainage fluid (peritoneal fluid), pig drainage fluid, Day 2 (2nd postoperative day), individual animals Tox 1-4, read-out: Drainage BTB-Concentration", "result": 0, "unit": "ng/mL"}, {"measurement": "concentration at 2 day", "setting": "[1]; drainage fluid (peritoneal fluid), pig drainage fluid, Day 2, mean of animals, read-out: Drainage BTB-Concentration, Mean", "result": 0, "unit": "ng/mL"}, {"measurement": "concentration at 0 min", "setting": "[1]; drainage fluid (peritoneal fluid), pig drainage fluid, Min 0 (baseline before indicator application), mean of animals, read-out: Drainage BTB-Concentration, Mean", "result": 1.9, "unit": "ng/mL"}, {"measurement": "concentration at 1 min", "setting": "[1]; drainage fluid (peritoneal fluid), pig drainage fluid, Min 1, mean of animals, read-out: Drainage BTB-Concentration, Mean", "result": 4220, "unit": "ng/mL"}, {"measurement": "concentration at 5 min", "setting": "[1]; [4]", "result": 3170, "unit": "ng/mL"}, {"measurement": "concentration at 30 min", "setting": "[1]; [4]", "result": 1310, "unit": "ng/mL"}, {"measurement": "concentration at 60 min", "setting": "[1]; drainage fluid (peritoneal fluid), pig drainage fluid, Min 60, mean of animals, read-out: Drainage BTB-Concentration, Mean", "result": 661, "unit": "ng/mL"}, {"measurement": "concentration at 120 min", "setting": "[1]; drainage fluid (peritoneal fluid), pig drainage fluid, Min 120, mean of animals, read-out: Drainage BTB-Concentration, Mean", "result": 408, "unit": "ng/mL"}, {"measurement": "concentration at 1 day", "setting": "[1]; portal venous blood, pig portal venous blood, Day 1, individual animals Tox 1-4, read-out: Portal Venous Blood BTB-Concentration", "result": 0, "unit": "ng/mL"}, {"measurement": "concentration at 1 day", "setting": "[1]; portal venous blood, pig portal venous blood, Day 1, mean of animals, read-out: Portal Venous Blood BTB-Concentration, Mean", "result": 0, "unit": "ng/mL"}, {"measurement": "concentration at 2 day", "setting": "[1]; portal venous blood, pig portal venous blood, Day 2, individual animals Tox 1-4, read-out: Portal Venous Blood BTB-Concentration", "result": 0, "unit": "ng/mL"}, {"measurement": "concentration at 2 day", "setting": "[1]; portal venous blood, pig portal venous blood, Day 2, mean of animals, read-out: Portal Venous Blood BTB-Concentration, Mean", "result": 0, "unit": "ng/mL"}, {"measurement": "concentration at 0 min", "setting": "[1]; portal venous blood, pig portal venous blood, Min 0 (baseline before indicator application), individual animals Tox 1-4, read-out: Portal Venous Blood BTB-Concentration", "result": 0, "unit": "ng/mL"}, {"measurement": "concentration at 0 min", "setting": "[1]; portal venous blood, pig portal venous blood, Min 0 (baseline before indicator application), mean of animals, read-out: Portal Venous Blood BTB-Concentration, Mean", "result": 0, "unit": "ng/mL"}, {"measurement": "concentration at 1 min", "setting": "[1]; portal venous blood, pig portal venous blood, Min 1, individual animals Tox 1-4, read-out: Portal Venous Blood BTB-Concentration", "result": 0, "unit": "ng/mL"}, {"measurement": "concentration at 1 min", "setting": "[1]; portal venous blood, pig portal venous blood, Min 1, mean of animals, read-out: Portal Venous Blood BTB-Concentration, Mean", "result": 0, "unit": "ng/mL"}, {"measurement": "concentration at 5 min", "setting": "[1]; [5]", "result": 0.51, "unit": "ng/mL"}, {"measurement": "concentration at 30 min", "setting": "[1]; [5]", "result": 0.53, "unit": "ng/mL"}, {"measurement": "concentration at 60 min", "setting": "[1]; portal venous blood, pig portal venous blood, Min 60, individual animals Tox 1-4, read-out: Portal Venous Blood BTB-Concentration", "result": 0, "unit": "ng/mL"}, {"measurement": "concentration at 60 min", "setting": "[1]; portal venous blood, pig portal venous blood, Min 60, mean of animals, read-out: Portal Venous Blood BTB-Concentration, Mean", "result": 0, "unit": "ng/mL"}, {"measurement": "concentration at 120 min", "setting": "[1]; portal venous blood, pig portal venous blood, Min 120, individual animals Tox 1-4, read-out: Portal Venous Blood BTB-Concentration", "result": 0, "unit": "ng/mL"}, {"measurement": "concentration at 120 min", "setting": "[1]; portal venous blood, pig portal venous blood, Min 120, mean of animals, read-out: Portal Venous Blood BTB-Concentration, Mean", "result": 0, "unit": "ng/mL"}, {"measurement": "BTB in portal venous blood", "setting": "[1]; pigs, 5 and 30 minutes after application, remaining pigs and timepoints no BTB detected", "result": "small amounts of BTB were found only in one pig"}, {"measurement": "pKa", "setting": "[2]", "result": 7.0}, {"measurement": "cytotoxicity (defined as cell viability less than 70%)", "setting": "[3]; 5.5 mg/ml of BTB", "result": "slight toxicity"}, {"measurement": "cytotoxicity (defined as cell viability less than 70%)", "setting": "[3]; 0.5-1.5 mg/ml of BTB", "result": "No cytotoxicity"}]}]}
